Laboratory results reported in patent US8772499B2, “TRPV3 modulators” (AbbVie Inc., priority 2011, dated 2014).
pIC50: −log10 of the molar value. Read-outs that look alike come from different tables or passages of the source.

Assays:
[1] = In vitro rat microsomal stability assay; type: in vitro ADME, rat (Sprague-Dawley); conditions: Sprague-Dawley, rat, microsomes, 0.5 h, 0.5 μM, pH 7.4
Protocol: (§1) Test compounds were evaluated for metabolic stability in an in vitro rat microsomal stability assay using rat liver microsomes (Sprague-Dawley, from BD Biosciences) and/or an in vitro human microsomal stability assay using human liver microsomes (Xenotech). […] Incubations were carried out at 37° C. with a final incubation volume of 135 μL. […] A 1.5 μL aliquot of reduced nicotine adenine disphosphonucleotide (NADPH) (Chem-Impex Int'L Inc., Lot 12532024) was also added to the time-zero plates.

[2] = target: T1, human TRPV3 (Homo sapiens, UniProt Q8NET8); assay: In vitro antagonism of recombinant human TRPV3 activation (FLIPR Tetra calcium assay); type: cell-based; conditions: HEK293 cells stably expressing human TRPV3, agonist 2-APB at 80 μM
T1 construct: expressed in transfected cells
T1 sequence (Q8NET8 1-790): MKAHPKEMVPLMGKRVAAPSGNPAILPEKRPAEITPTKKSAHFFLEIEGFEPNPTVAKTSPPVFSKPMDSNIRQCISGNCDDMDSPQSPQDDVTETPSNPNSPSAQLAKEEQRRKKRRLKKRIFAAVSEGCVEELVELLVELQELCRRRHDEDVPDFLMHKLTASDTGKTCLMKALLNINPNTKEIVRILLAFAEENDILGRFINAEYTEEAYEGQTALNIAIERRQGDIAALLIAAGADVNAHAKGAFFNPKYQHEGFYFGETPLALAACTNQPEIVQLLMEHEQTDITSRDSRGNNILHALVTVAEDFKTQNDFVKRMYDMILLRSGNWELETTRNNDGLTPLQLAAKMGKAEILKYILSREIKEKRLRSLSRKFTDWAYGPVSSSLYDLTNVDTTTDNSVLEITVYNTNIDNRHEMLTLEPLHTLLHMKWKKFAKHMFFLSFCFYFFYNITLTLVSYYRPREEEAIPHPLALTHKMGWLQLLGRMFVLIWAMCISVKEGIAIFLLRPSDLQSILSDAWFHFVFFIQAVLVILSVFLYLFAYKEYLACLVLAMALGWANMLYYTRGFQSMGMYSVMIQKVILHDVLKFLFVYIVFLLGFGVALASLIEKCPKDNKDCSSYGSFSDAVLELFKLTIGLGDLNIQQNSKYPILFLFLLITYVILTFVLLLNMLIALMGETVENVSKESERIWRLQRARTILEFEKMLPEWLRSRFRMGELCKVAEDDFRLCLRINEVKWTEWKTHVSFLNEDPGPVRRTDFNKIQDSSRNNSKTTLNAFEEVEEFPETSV
How it was run: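 Calcium flux read over a 10 min run: compound added at 10 s to Calcium-4-loaded human TRPV3-HEK293 cells, agonist 2-APB (80 μM, its EC80) after 3 min. IC50 derived from peak-minus-baseline signal as percentage of uninhibited 2-APB response, typically averaged over at least two runs.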

[3] = In vitro human microsomal stability assay; type: in vitro ADME; conditions: human, microsomes, 0.5 h, 0.5 μM, pH 7.4
Protocol: as §1

[4] = actual measured value shown parenthetically, in most cases average of at least two runs, read-out: IC50
[5] = reported range, read-out: IC50 (range class)

Compound | RAT MICROSOMAL STABILITY (% REMAINING AFTER 30 MINUTES) [1] [%] | pIC50 [2, 4] | HUMAN MICROSOMAL STABILITY (% REMAINING AFTER 30 MINUTES) [3] [%] | pIC50 [2, 5]
OC(c1ccccn1)C1(c2cccc(C(F)(F)F)c2)CCCO1 (single isomer, unassigned) [Example 107, (syn)-pyridin-2-yl{2-[3-(trifluoromethyl)phenyl]tetrahydrofuran-2-yl}-methanol] | 0.23 | 5.53 | 31 | –
OC(c1ccccn1)C1(c2ccc(F)c(F)c2)CCCO1 (single isomer, unassigned) [Example 108, (anti)-[2-(3,4-difluorophenyl)tetrahydrofuran-2-yl](pyridin-2-yl)methanol] | 4.9 | 6.21 | 13 | –
OC(c1ccccn1)C1(c2ccc(F)c(F)c2)CCCO1 (single isomer, unassigned) [Example 109, (syn)-[2-(3,4-difluorophenyl)tetrahydrofuran-2-yl](pyridin-2-yl)methanol] | 0.74 | 5.24 | 45 | –
OC1CC(c2ccc(OC(F)(F)F)cc2)(C(O)c2ccccn2)C1 (single isomer, unassigned) [Example 131] | 50 | 6.09 | >85 | 5.30 to 5.96
OC1CC(c2ccc(OC(F)(F)F)cc2)(C(O)c2ccccn2)C1 (single isomer, unassigned) [Example 132] | 72 | 5.03 | 81 | –
O=C1CC(c2ccc(C(F)(F)F)cc2)([C@H](O)c2ccccn2)C1 (single isomer, unassigned) [Example 164] | 81 | 5.58 | 71 | –
O=C1CC(c2ccc(C(F)(F)F)cc2)([C@@H](O)c2ccccn2)C1 (single isomer, unassigned) [Example 165] | 77 | 4.78 | 83 | –
OC(C1CCCc2cccnc21)C1(c2ccc(F)c(F)c2)CCC1 (single isomer, unassigned) [Example 169, (anti)-[1-(3,4-difluorophenyl)cyclobutyl][5,6,7,8-tetrahydroquinolin-8-yl]-methanol] | <0.01 | 5.24 | <0.01 | –
OC(C1CCCc2cccnc21)C1(c2ccc(F)c(F)c2)CCC1 (single isomer, unassigned) [Example 170, (syn)-[1-(3,4-difluorophenyl)cyclobutyl][5,6,7,8-tetrahydroquinolin-8-yl]-methanol] | <0.01 | < 4.70 | <0.01 | < 4.70
OC(C1CCCc2cccnc21)C1(c2ccc(OC(F)(F)F)cc2)CCC1 (single isomer, unassigned) [Example 177, (anti)-5,6,7,8-tetrahydroquinolin-8-yl{1-[4-(trifluoromethoxy)phenyl]-cyclobutyl}methanol] | <0.01 | 5.47 | 0.12 | –
OC(C1CCCc2cccnc21)C1(c2ccc(OC(F)(F)F)cc2)CCC1 (single isomer, unassigned) [Example 178, (syn)-5,6,7,8-tetrahydroquinolin-8-yl{1-[4-(trifluoromethoxy)phenyl]-cyclobutyl}methanol] | <0.01 | < 4.70 | 9.2 | < 4.70
OC(C1CCCc2cccnc21)C1(c2cccc(C(F)(F)F)c2)CCC1 (single isomer, unassigned) [Example 179, (anti)-5,6,7,8-tetrahydroquinolin-8-yl{1-[3-(trifluoromethyl)phenyl]-cyclobutyl}methanol] | <0.01 | 5.53 | <0.01 | –
OC(C1CCCc2cccnc21)C1(c2cccc(C(F)(F)F)c2)CCC1 (single isomer, unassigned) [Example 180, (syn)-5,6,7,8-tetrahydroquinolin-8-yl{1-[3-(trifluoromethyl)phenyl]-cyclobutyl}methanol] | <0.01 | < 4.70 | <0.01 | < 4.70
OC(C1CCCc2cccnc21)C1(c2ccc(Cl)c(Cl)c2)CCC1 (single isomer, unassigned) [Example 181, (anti)-[1-(3,4-dichlorophenyl)cyclobutyl][5,6,7,8-tetrahydroquinolin-8-yl]-methanol] | <0.01 | 5.70 | <0.01 | –
OC(C1CCCc2cccnc21)C1(c2ccc(Cl)c(Cl)c2)CCC1 (single isomer, unassigned) [Example 182, (syn)-[1-(3,4-dichlorophenyl)cyclobutyl][5,6,7,8-tetrahydroquinolin-8-yl]-methanol] | <0.01 | < 4.70 | <0.01 | < 4.70
OC(C1CCCc2cccnc21)C1(c2ccc(C(F)(F)F)cc2)CCC1 (single isomer, unassigned) [Example 183, (anti)-5,6,7,8-tetrahydroquinolin-8-yl{1-[4-(trifluoromethyl)phenyl]-cyclobutyl}methanol] | <0.01 | 5.85 | <0.01 | –
OC(C1CCCc2cccnc21)C1(c2ccc(C(F)(F)F)cc2)CCC1 (single isomer, unassigned) [Example 184, (syn)-5,6,7,8-tetrahydroquinolin-8-yl{1-[4-(trifluoromethyl)phenyl]-cyclobutyl}methanol] | <0.01 | < 4.70 | 0.46 | < 4.70
CC1(O)CC(c2ccc(OC(F)(F)F)cc2)(C(O)c2ccccn2)C1 (single isomer, unassigned) [Example 203] | 74 | 4.86 | >85 | –
CC1(O)CC(c2ccc(C(F)(F)F)cc2)(C(O)c2ccccn2)C1 (single isomer, unassigned) [Example 233] | 67 | 4.97 | >85 | –
O=C1CC(c2cccc(C(F)(F)F)c2)([C@H](O)c2ccccn2)C1 (single isomer, unassigned) [Example 241] | 59 | 5.78 | 66 | –
O=C1CC(c2cccc(C(F)(F)F)c2)([C@@H](O)c2ccccn2)C1 (single isomer, unassigned) [Example 243] | 55 | 4.73 | 64 | –
